From the NIST ThermoML archive (doi:10.1016/j.jct.2012.11.032)
Numbers after ± are expanded uncertainties.

Assay: xn = mol fraction of the nth substance listed
Conditions: 101 kPa, Liquid; for speed of sound: Sing-around technique in a fixed-path interferometer; for mass density: Vibrating tube method

CCCCCCCCCCCC[n+]1ccn(C)c1.[Cl-] [1-dodecyl-3-methylimidazolium chloride] + O
Conditions | mass density [kg/m3] | speed of sound [m/s]
283 K, x1 = 2.7e-05 | 999.688 ± 0.1 | –
283 K, x1 = 3e-05 | 999.704 ± 0.1 | –
283 K, x1 = 4.8e-05 | 999.71 ± 0.1 | –
283 K, x1 = 7.4e-05 | 999.71 ± 0.1 | –
283 K, x1 = 9.4e-05 | 999.705 ± 0.1 | –
283 K, x1 = 0.000109 | 999.71 ± 0.1 | –
283 K, x1 = 0.000129 | 999.718 ± 0.1 | –
283 K, x1 = 0.000145 | 999.717 ± 0.1 | –
283 K, x1 = 0.000163 | 999.735 ± 0.1 | –
283 K, x1 = 0.000181 | 999.724 ± 0.1 | –
283 K, x1 = 0.000208 | 999.73 ± 0.1 | –
283 K, x1 = 0.000234 | 999.729 ± 0.1 | –
283 K, x1 = 0.000248 | 999.744 ± 0.1 | –
283 K, x1 = 0.000273 | 999.743 ± 0.1 | –
283 K, x1 = 0.000286 | 999.744 ± 0.1 | –
283 K, x1 = 0.000302 | 999.732 ± 0.1 | –
283 K, x1 = 0.000319 | 999.749 ± 0.1 | –
283 K, x1 = 0.000341 | 999.737 ± 0.1 | –
283 K, x1 = 0.000384 | 999.728 ± 0.1 | –
283 K, x1 = 0.000407 | 999.721 ± 0.1 | –
283 K, x1 = 0.000428 | 999.712 ± 0.1 | –
283 K, x1 = 0.0027 | – | 1448.4 ± 1.2
283 K, x1 = 0.003 | – | 1448.5 ± 1.2
283 K, x1 = 0.0048 | – | 1448.8 ± 1.2
283 K, x1 = 0.0074 | – | 1449.3 ± 1.2
283 K, x1 = 0.0094 | – | 1449.7 ± 1.2
283 K, x1 = 0.0109 | – | 1449.9 ± 1.2
283 K, x1 = 0.0129 | – | 1450.2 ± 1.2
283 K, x1 = 0.0145 | – | 1450.5 ± 1.2
283 K, x1 = 0.0163 | – | 1450.8 ± 1.2
283 K, x1 = 0.0181 | – | 1451.2 ± 1.2
283 K, x1 = 0.0208 | – | 1451.7 ± 1.2
283 K, x1 = 0.0234 | – | 1452 ± 1.2
283 K, x1 = 0.0248 | – | 1452.2 ± 1.2
283 K, x1 = 0.0273 | – | 1452.6 ± 1.2
283 K, x1 = 0.0286 | – | 1452.7 ± 1.2
283 K, x1 = 0.0302 | – | 1452.8 ± 1.2
283 K, x1 = 0.0319 | – | 1453.1 ± 1.2
283 K, x1 = 0.0341 | – | 1453.5 ± 1.2
283 K, x1 = 0.0384 | – | 1453.5 ± 1.2
283 K, x1 = 0.0407 | – | 1453.7 ± 1.2
283 K, x1 = 0.0428 | – | 1453.7 ± 1.2
288 K, x1 = 2.7e-05 | 999.099 ± 0.1 | –
288 K, x1 = 3e-05 | 999.118 ± 0.1 | –
288 K, x1 = 4.8e-05 | 999.119 ± 0.1 | –
288 K, x1 = 7.4e-05 | 999.115 ± 0.1 | –
288 K, x1 = 9.4e-05 | 999.109 ± 0.1 | –
288 K, x1 = 0.000109 | 999.114 ± 0.1 | –
288 K, x1 = 0.000129 | 999.12 ± 0.1 | –
288 K, x1 = 0.000145 | 999.116 ± 0.1 | –
288 K, x1 = 0.000163 | 999.133 ± 0.1 | –
288 K, x1 = 0.000181 | 999.119 ± 0.1 | –
288 K, x1 = 0.0027 | – | 1466.7 ± 1.2
288 K, x1 = 0.003 | – | 1466.8 ± 1.2
288 K, x1 = 0.0048 | – | 1467.1 ± 1.2
288 K, x1 = 0.0074 | – | 1467.6 ± 1.2
288 K, x1 = 0.0094 | – | 1467.9 ± 1.2
288 K, x1 = 0.0109 | – | 1468.1 ± 1.2
288 K, x1 = 0.0129 | – | 1468.4 ± 1.2
288 K, x1 = 0.0145 | – | 1468.6 ± 1.2
288 K, x1 = 0.0163 | – | 1468.9 ± 1.2
288 K, x1 = 0.0181 | – | 1469.2 ± 1.2
288 K, x1 = 0.0208 | – | 1469.7 ± 1.2
288 K, x1 = 0.0234 | – | 1470 ± 1.2
288 K, x1 = 0.0248 | – | 1470.2 ± 1.2
288 K, x1 = 0.0273 | – | 1470.5 ± 1.2
288 K, x1 = 0.0286 | – | 1470.6 ± 1.2
288 K, x1 = 0.0302 | – | 1470.7 ± 1.2
288 K, x1 = 0.0319 | – | 1470.9 ± 1.2
288 K, x1 = 0.0341 | – | 1471 ± 1.2
288 K, x1 = 0.0384 | – | 1471 ± 1.2
288 K, x1 = 0.0407 | – | 1471.2 ± 1.2
288 K, x1 = 0.0428 | – | 1471.2 ± 1.2
